For experiment [1], the system named is HCT-116. The experiment in a line: Anticancer activity against human HCT116 cells. The format is functional, cell-based.
The subject of experiment [2] is HCT-116. The experiment in a line: Potency index, ratio imatinib IC50 to compound IC50 for human HCT116 cells. Type of experiment: functional.
In experiment [3] the test system is HepG2. Nature of the experiment: Anticancer activity against human HepG2 cells. Type of experiment: functional, cell-based.
The test system of experiment [4] is HepG2. Nature of the experiment: Anticancer activity against human HepG2 cells at 40 ug/ml after 72 hrs by MTT assay. The format is functional. The following applies: HepG2, 72 h. For orientation: Tetrazolium assays rely on reduction of a dye to a coloured formazan, in cell work by metabolically active cells.
For experiment [5], the system named is HepG2. Nature of the experiment: Anticancer activity against human HepG2 cells after 72 hrs by MTT assay. Type of experiment: functional, cell-based. To be noted: HepG2, 72 h.
Experiment [6] in a line: Anticancer activity against human […] cells after 72 hrs by MTT assay. Type of experiment: functional, cell-based.
Experiment [7] concerns MCF7. The experiment in a line: Anticancer activity against human MCF7 cells after 72 hrs by MTT assay. The format is functional, cell-based. The following applies: MCF7, 72 h.
The test system of experiment [8] is MCF7. Nature of the experiment: Anticancer activity against human MCF7 cells at 40 ug/ml after 72 hrs by MTT assay. The following applies: MCF7, 72 h. Type of experiment: functional.
Experiment [9] can be described thus: Anticancer activity against human Chronic myeloid leukemia cells at 10 uM after 24 hrs by MTT assay. The format is functional. The following applies: Leukemia cell.
Experiment [10] can be described thus: Anticancer activity against human Chronic myeloid leukemia cells at 20 uM after 24 hrs by MTT assay. Type of experiment: functional. The following applies: Leukemia cell.
Experiment [11] deals with Poly [ADP-ribose] polymerase 1 (Homo sapiens, UniProt P09874). Nature of the experiment: Inhibition of PARP1 (unknown origin).
Poly [ADP-ribose] polymerase 1, sequence (P09874 whole entry): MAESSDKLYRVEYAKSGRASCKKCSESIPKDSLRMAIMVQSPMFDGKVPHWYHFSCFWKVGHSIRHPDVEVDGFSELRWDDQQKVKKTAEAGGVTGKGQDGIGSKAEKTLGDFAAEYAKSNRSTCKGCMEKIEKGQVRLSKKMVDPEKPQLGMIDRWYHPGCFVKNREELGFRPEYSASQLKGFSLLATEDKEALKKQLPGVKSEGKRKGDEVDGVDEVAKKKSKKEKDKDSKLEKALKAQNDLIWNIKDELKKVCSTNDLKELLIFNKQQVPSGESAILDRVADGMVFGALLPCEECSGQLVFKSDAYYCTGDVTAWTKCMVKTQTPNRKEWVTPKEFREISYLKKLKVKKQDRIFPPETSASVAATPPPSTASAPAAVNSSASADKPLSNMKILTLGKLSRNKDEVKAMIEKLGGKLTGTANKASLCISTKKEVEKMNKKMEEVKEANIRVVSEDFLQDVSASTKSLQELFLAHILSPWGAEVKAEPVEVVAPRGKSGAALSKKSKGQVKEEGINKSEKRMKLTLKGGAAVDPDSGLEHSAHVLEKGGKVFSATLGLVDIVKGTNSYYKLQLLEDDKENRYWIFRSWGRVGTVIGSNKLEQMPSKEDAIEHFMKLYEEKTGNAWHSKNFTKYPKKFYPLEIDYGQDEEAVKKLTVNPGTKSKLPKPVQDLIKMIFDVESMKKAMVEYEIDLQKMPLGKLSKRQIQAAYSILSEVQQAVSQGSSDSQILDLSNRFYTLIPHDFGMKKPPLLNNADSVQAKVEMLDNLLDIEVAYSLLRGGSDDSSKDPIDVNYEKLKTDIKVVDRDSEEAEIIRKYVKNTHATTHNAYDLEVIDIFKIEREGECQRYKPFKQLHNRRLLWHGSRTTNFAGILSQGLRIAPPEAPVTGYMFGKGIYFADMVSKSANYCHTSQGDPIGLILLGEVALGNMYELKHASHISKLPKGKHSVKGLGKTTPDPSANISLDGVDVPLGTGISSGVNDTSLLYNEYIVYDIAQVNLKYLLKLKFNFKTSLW

Turning to `O=c1[nH]c(CNc2ccccc2)nc2sc3c(c12)CCCCCC3`, in the experiment on HCT-116 [1], the midpoint of inhibition, the IC50, lay at 11.9 µM. Also, the “Ratio IC50” value in the experiment with HCT-116 [2] turned out to be 2.89.
Turning to `O=c1[nH]c(CNc2ccc(Cl)cc2)nc2sc3c(c12)CCCCCC3`, 12.4 µM corresponded to half-maximal inhibition in the experiment with HCT-116 [1] (IC50). For the same compound, the “Ratio IC50” value in the experiment with HCT-116 [2] stood at 1.07.
In the case of `CC(=O)OC[C@H](OC(C)=O)[C@@H](OC(C)=O)[C@H](OC(C)=O)[C@H](OC(C)=O)c1nc2c3c4c(sc3nc(C)n2n1)CCc1ccccc1-4`, half-maximal inhibition with HepG2 [3] (IC50) was put at 12 µM.
With `O=c1c2c3c(sc2ncn1Cc1ccc(Br)cc1)CCC=C3`, the inhibition at 40 µg/mL in the experiment on HepG2 [4] and in the experiment with MCF7 [8] was 66.8% throughout. Further, the values for the half-inhibitory concentration (IC50) (in the experiment on HepG2 [5]; in experiment [6]; with MCF7 [7]) were 15 µM, 45 µM and 78.9 µM, respectively.
Take `CC(C)(O)C#Cc1ncnc2sc3c(c12)CCC3`: 10 µM produced 30% inhibition in [9]. For the same compound, the inhibition (in general, the change of the read-out against control, counted positive when it falls) at 20 µM in [10] amounted to 54%.
In experiment [9], `Cc1csc2ncnc(C#Cc3ccccn3)c12` yielded an inhibition at 10 µM of 32%. Further, the inhibition at 20 µM in [10] is 60%.
For the compound `NCc1nc2sc3c(c2c(=O)[nH]1)CCC3`, in [11], the IC50 (as a rule, the concentration that inhibits the measured activity by half) was determined as 17 µM.
Regarding `O=c1[nH]cc(F)c(=O)[nH]1` [FLUOROURACIL], the inhibition at 40 µg/mL in the experiment on HepG2 [4] and with MCF7 [8] was 68.2% in each case.
With `Cc1ccc(NC(=O)c2ccc(CN3CCN(C)CC3)cc2)cc1Nc1nccc(-c2cccnc2)n1` [IMATINIB], the IC50 in the experiment on HCT-116 [1] worked out at 34.4 µM.

Source of the values: ChEMBL document CHEMBL3616428, “Recent developments regarding the use of thieno[2,3-d]pyrimidin-4-one derivatives in medicinal chemistry, with a focus on their synthesis and anticancer properties” (Eur J Med Chem, 2015).
